Laboratory results from patent US6376510B1, “Neuromuscular relaxants” (Newlaxant LLC, priority 1997, dated 2002).
Read-outs that look alike come from different tables or passages of the source.

Experiments:
dogs = assay: animal or person; format: in vivo; conditions: dog; for ED50: intravenous dose causing 50% neuromuscular block; for RI (recovery index): spontaneous recovery, 25-75% neuromuscular response; for Onset: time to 80-85% neuromuscular block
[1] = tested on: anesthetized rats (evoked responses of anterior tibial muscle); assay: In vivo neuromuscular block and cardiovascular side effects, anesthetized rat (Example 8, Table 3); conditions: for VB (vagal block) / ΔBP (change in arterial blood pressure) / ΔH (change in heart rate): at 80-85% neuromuscular blocking dose; for RI (recovery index): spontaneous recovery, 25-75% neuromuscular response; for Onset: time to 80-85% neuromuscular block
Outline: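 Pentobarbital-anesthetized (i.p.), ventilated adult male rats given saline-dissolved agents i.v.; anterior tibial EMG responses to supramaximal single or train-of-four sciatic/peroneal stimuli, plus 0.1 or 1 Hz stimulation. Doses for 50%, 80%, 90% block derived. Onset: minutes to 80-85% block; RI: 25-75% spontaneous recovery; vagal block, heart rate and blood pressure changes (%) at 80-85% blocking dose.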

rabbits = assay: In vivo neuromuscular block and cardiovascular side effects, rabbit (Example 8, Table 7); conditions: for ED50: intravenous dose causing 50% neuromuscular block; for RI (recovery index): spontaneous recovery, 25-75% neuromuscular response; for Onset: time to 80-85% neuromuscular block
[2] = tested on: anesthetized juvenile pigs; assay: animal or person; format: in vivo; conditions: pig; for ED50: intravenous dose causing 50% neuromuscular block; for RI (recovery index): spontaneous recovery, 25-75% neuromuscular response; for Onset: time to 80-85% neuromuscular block
Outline: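 Electromyographic and mechanomyographic responses quantified. Monkeys sedated with intramuscular ketamine, then general anesthesia with intravenous pentobarbital and propofol; juvenile pigs induced with inhaled halothane.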

anesthetized monkeys = assay: In vivo neuromuscular block and cardiovascular side effects, monkey (Example 8, Table 6); conditions: for ED50: intravenous dose causing 50% neuromuscular block; for RI (recovery index): spontaneous recovery, 25-75% neuromuscular response; for Onset: time to 80-85% neuromuscular block
Text: Both electromyographic and mechanomyographic responses can be quantified.
The techniques described under a) and b) were employed in other species as needed with the modification that juvenile pigs were initially anesthetized with inhalation of halothane (Table 5) and monkeys were initially sedated with intramuscular ketamine injections prior to inducing and maintaining general anesthesia using pentobarbital and propofol administered intravenously (Table 6).

[3] = tested on: anesthetized cats (evoked responses of anterior tibial muscle); assay: animal or person; conditions: for RI (recovery index): spontaneous recovery, 25-75% neuromuscular response; for Onset: time to 80-85% neuromuscular block
Outline: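 Adult cats anesthetized i.p. with 70 mg/kg alpha chloralose plus 0.5 g/kg ethylurethane; agents in saline given i.v. Anterior tibial muscle responses to supramaximal single or train-of-four stimuli of sciatic or peroneal nerve recorded electromyographically and mechanomyographically, alongside blood pressure and heart rate.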

[4] = Canis lupus familiaris, read-out: ED50
[5] = at 80-85% neuromuscular blocking dose
[6] = Oryctolagus cuniculus, read-out: ED50
[7] = cat, at 80-85% neuromuscular blocking dose

CC(=O)Oc1ccc(C[N+]2(C)[C@@H]3CC[C@H]2C[C@@H](OC(=O)C2CCCC(C(=O)O[C@H]4C[C@H]5CC[C@@H](C4)[N+]5(C)Cc4ccc(OC(C)=O)c(OC(C)=O)c4)C2)C3)cc1OC(C)=O.[Br-].[Br-] (stereo partly drawn) [bis[N-(3,4-diacetoxybenzyl)tropanium-3α-yl]cyclohexane-1,3-dicarboxylate dibromide]
ED50 (dogs; [4]): 0.128 mg/kg
ΔBP (change in arterial blood pressure) (dogs; [5]): −5%
ΔH (change in heart rate) (dogs; [5]): 30%
RI (recovery index) (dogs): 0.55 min
Onset (dogs): 0.75 min
ED50 ([1]; Rattus norvegicus, iv): 0.24 mg/kg
VB (vagal block) ([1]; rat): 28%
ΔBP (change in arterial blood pressure) ([1]; rat): 0%
ΔH (change in heart rate) ([1]; rat): 0%
RI (recovery index) ([1]; rat): 0.5 min
Onset ([1]; rat): 0.65 min
ED50 (rabbits; [6]): 0.1 mg/kg
ΔBP (change in arterial blood pressure) (rabbits; [5]): 0%
ΔH (change in heart rate) (rabbits; [5]): 0%
RI (recovery index) (rabbits): 0.7 min
Onset (rabbits): 0.9 min
ED50 ([2]; Sus scrofa, read-out: ED50): 0.225 mg/kg
VB (vagal block) [2, 5]: 54%
ΔBP (change in arterial blood pressure) [2, 5]: 0%
ΔH (change in heart rate) [2, 5]: 0%
RI (recovery index) [2]: 0.85 min
Onset [2]: 0.8 min
ED50 (anesthetized monkeys; Primates, read-out: ED50): 0.075 mg/kg
ΔBP (change in arterial blood pressure) (anesthetized monkeys; [5]): 0%
ΔH (change in heart rate) (anesthetized monkeys; [5]): 0%
RI (recovery index) (anesthetized monkeys): 0.65 min
Onset (anesthetized monkeys): 0.95 min
ED50 ([3]; Felis catus, iv): 0.11 mg/kg
VB (vagal block) [3, 7]: 34%
ΔBP (change in arterial blood pressure) [3, 7]: −25%
ΔH (change in heart rate) [3, 7]: −12%
RI (recovery index) ([3]; cat): 0.5 min
Onset ([3]; cat): 0.8 min

CC(=O)Oc1ccc(C[N+]2(C)[C@@H]3CC[C@H]2C[C@@H](OC(=O)CCCC(=O)O[C@H]2C[C@H]4CC[C@@H](C2)[N+]4(C)Cc2ccc(OC(C)=O)c(OC(C)=O)c2)C3)cc1OC(C)=O.[Br-].[Br-] (stereo partly drawn) [bis[N-(3,4-diacetoxybenzyl)tropanium-3α-yl]glutarate dibromide]
ED50 (dogs; [4]): 0.11 mg/kg
ΔBP (change in arterial blood pressure) (dogs; [5]): 0%
ΔH (change in heart rate) (dogs; [5]): 0%
RI (recovery index) (dogs): 0.6 min
Onset (dogs): 0.9 min
ED50 ([1]; Rattus norvegicus, iv): 0.232 mg/kg
VB (vagal block) ([1]; rat): 10%
ΔBP (change in arterial blood pressure) ([1]; rat): 0%
ΔH (change in heart rate) ([1]; rat): 0%
RI (recovery index) ([1]; rat): 0.6 min
Onset ([1]; rat): 0.75 min
ED50 (rabbits; [6]): 0.065 mg/kg
ΔBP (change in arterial blood pressure) (rabbits; [5]): 0%
ΔH (change in heart rate) (rabbits; [5]): 0%
RI (recovery index) (rabbits): 0.7 min
Onset (rabbits): 0.9 min
ED50 ([2]; Sus scrofa, read-out: ED50): 0.23 mg/kg
VB (vagal block) [2, 5]: 41%
ΔBP (change in arterial blood pressure) [2, 5]: 0%
ΔH (change in heart rate) [2, 5]: 0%
RI (recovery index) [2]: 1.1 min
Onset [2]: 0.95 min
ED50 (anesthetized monkeys; Primates, read-out: ED50): 0.088 mg/kg
ΔBP (change in arterial blood pressure) (anesthetized monkeys; [5]): 0%
ΔH (change in heart rate) (anesthetized monkeys; [5]): 0%
RI (recovery index) (anesthetized monkeys): 0.8 min
Onset (anesthetized monkeys): 1 min
ED50 ([3]; Felis catus, iv): 0.183 mg/kg
VB (vagal block) [3, 7]: 8%
ΔBP (change in arterial blood pressure) [3, 7]: 0%
ΔH (change in heart rate) [3, 7]: 0%
RI (recovery index) ([3]; cat): 0.6 min
Onset ([3]; cat): 1 min

COc1cc(C[N+]2(C)[C@@H]3CC[C@H]2C[C@@H](OC(=O)C2CCC2C(=O)O[C@H]2C[C@H]4CC[C@@H](C2)[N+]4(C)Cc2ccc(OC(C)=O)c(OC)c2)C3)ccc1OC(C)=O.[Br-].[Br-] (stereo partly drawn) [bis[N-(4-acetoxy-3-methoxybenzyl)tropanium-3α-yl]cyclobutane-1,2-dicarboxylate dibromide]
ED50 (dogs; [4]): 0.145 mg/kg
ΔBP (change in arterial blood pressure) (dogs; [5]): −15%
ΔH (change in heart rate) (dogs; [5]): 45%
RI (recovery index) (dogs): 0.7 min
Onset (dogs): 0.85 min
ED50 ([1]; Rattus norvegicus, iv): 0.35 mg/kg
VB (vagal block) ([1]; rat): 20%
ΔBP (change in arterial blood pressure) ([1]; rat): 0%
ΔH (change in heart rate) ([1]; rat): 0%
RI (recovery index) ([1]; rat): 0.5 min
Onset ([1]; rat): 0.6 min
ED50 (rabbits; [6]): 0.075 mg/kg
ΔBP (change in arterial blood pressure) (rabbits; [5]): 0%
ΔH (change in heart rate) (rabbits; [5]): 0%
RI (recovery index) (rabbits): 0.55 min
Onset (rabbits): 0.6 min
ED50 ([2]; Sus scrofa, read-out: ED50): 0.268 mg/kg
VB (vagal block) [2, 5]: 46%
ΔBP (change in arterial blood pressure) [2, 5]: 0%
ΔH (change in heart rate) [2, 5]: 0%
RI (recovery index) [2]: 0.87 min
Onset [2]: 0.5 min
ED50 (anesthetized monkeys; Primates, read-out: ED50): 0.092 mg/kg
ΔBP (change in arterial blood pressure) (anesthetized monkeys; [5]): 0%
ΔH (change in heart rate) (anesthetized monkeys; [5]): 0%
RI (recovery index) (anesthetized monkeys): 0.5 min
Onset (anesthetized monkeys): 0.75 min
ED50 ([3]; Felis catus, iv): 0.16 mg/kg
VB (vagal block) [3, 7]: 20%
ΔBP (change in arterial blood pressure) [3, 7]: 0%
ΔH (change in heart rate) [3, 7]: 0%
RI (recovery index) ([3]; cat): 0.5 min
Onset ([3]; cat): 0.9 min

COc1cc(C[N+]2(C)[C@@H]3CC[C@H]2C[C@@H](OC(=O)C2CCCC(C(=O)O[C@H]4C[C@H]5CC[C@@H](C4)[N+]5(C)Cc4ccc(OC(C)=O)c(OC)c4)C2)C3)ccc1OC(C)=O.[Br-].[Br-] (stereo partly drawn) [bis[N-(4-acetoxy-3-methoxybenzyl)tropanium-3α-yl]cyclohexane-1,3-dicarboxylate dibromide]
ED50 (dogs; [4]): 0.28 mg/kg
ΔBP (change in arterial blood pressure) (dogs; [5]): −25%
ΔH (change in heart rate) (dogs; [5]): 38%
RI (recovery index) (dogs): 0.5 min
Onset (dogs): 0.75 min
ED50 ([1]; Rattus norvegicus, iv): 0.27 mg/kg
VB (vagal block) ([1]; rat): 30%
ΔBP (change in arterial blood pressure) ([1]; rat): 0%
ΔH (change in heart rate) ([1]; rat): 0%
RI (recovery index) ([1]; rat): 0.45 min
Onset ([1]; rat): 0.55 min
ED50 (rabbits; [6]): 0.165 mg/kg
ΔBP (change in arterial blood pressure) (rabbits; [5]): 0%
ΔH (change in heart rate) (rabbits; [5]): 0%
RI (recovery index) (rabbits): 0.65 min
Onset (rabbits): 0.65 min
ED50 ([2]; Sus scrofa, read-out: ED50): 0.183 mg/kg
VB (vagal block) [2, 5]: 65%
ΔBP (change in arterial blood pressure) [2, 5]: 0%
ΔH (change in heart rate) [2, 5]: 0%
RI (recovery index) [2]: 0.75 min
Onset [2]: 0.6 min
ED50 (anesthetized monkeys; Primates, read-out: ED50): 0.1 mg/kg
ΔBP (change in arterial blood pressure) (anesthetized monkeys; [5]): 0%
ΔH (change in heart rate) (anesthetized monkeys; [5]): 0%
RI (recovery index) (anesthetized monkeys): 0.5 min
Onset (anesthetized monkeys): 0.9 min
ED50 ([3]; Felis catus, iv): 0.325 mg/kg
VB (vagal block) [3, 7]: 33%
ΔBP (change in arterial blood pressure) [3, 7]: −5%
ΔH (change in heart rate) [3, 7]: 0%
RI (recovery index) ([3]; cat): 0.5 min
Onset ([3]; cat): 0.9 min

COc1cc(C[N+]2(C)C3CCC2CC(OC(=O)C2C4C=CC(C4)C2C(=O)OC2CC4CCC(C2)[N+]4(C)Cc2ccc(OC(C)=O)c(OC)c2)C3)ccc1OC(C)=O.[Br-].[Br-] (stereo not drawn) [bis[N-(4-acetoxy-3-methoxybenzyl)tropanium-3α-yl]trans-3,6-endomethylene-1,2,3,6-tetrahydrophthalate dibromide]
ΔBP (change in arterial blood pressure) (dogs; in vivo): −25%
ΔH (change in heart rate) (dogs; in vivo): 40%
ED50 (dogs): 0.35 mg/kg
RI (recovery index) (dogs): 0.5 min
Onset (dogs): 0.63 min
VB (vagal block) ([1]; rat): 25%
ΔBP (change in arterial blood pressure) ([1]; rat): 0%
ΔH (change in heart rate) ([1]; rat): 0%
ED50 ([1]; rat, intravenous dose causing 50% neuromuscular block): 0.15 mg/kg
RI (recovery index) ([1]; rat): 0.5 min
Onset ([1]; rat): 0.55 min
ΔBP (change in arterial blood pressure) (rabbits; in vivo): 0%
ΔH (change in heart rate) (rabbits; in vivo): 0%
ED50 (rabbits): 0.155 mg/kg
RI (recovery index) (rabbits): 0.65 min
Onset (rabbits): 0.65 min
VB (vagal block) ([2]; in vivo): 43%
ΔBP (change in arterial blood pressure) ([2]; in vivo): 0%
ΔH (change in heart rate) ([2]; in vivo): 0%
ED50 [2]: 0.19 mg/kg
RI (recovery index) [2]: 1 min
Onset [2]: 0.6 min
ΔBP (change in arterial blood pressure) (anesthetized monkeys; in vivo): 0%
ΔH (change in heart rate) (anesthetized monkeys; in vivo): 0%
ED50 (anesthetized monkeys): 0.055 mg/kg
RI (recovery index) (anesthetized monkeys): 0.5 min
Onset (anesthetized monkeys): 0.85 min
ED50 ([3]; cat, intravenous dose causing 50% neuromuscular block): 0.193 mg/kg
RI (recovery index) ([3]; cat): 0.4 min
Onset ([3]; cat): 0.7 min
VB (vagal block) ([3]; in vivo): 20%
ΔBP (change in arterial blood pressure) ([3]; in vivo): 0%
ΔH (change in heart rate) ([3]; in vivo): 5%
